Reference: ChEMBL document CHEMBL5291721, “A preclinical secondary pharmacology resource illuminates target-adverse drug reaction associations of marketed drugs” (Nat Commun, 2023)

Assays:
[1] = molecular target: T1, Alpha-1A adrenergic receptor (Homo sapiens, UniProt P35348); format: functional, cell-based
T1 sequence (P35348 whole entry): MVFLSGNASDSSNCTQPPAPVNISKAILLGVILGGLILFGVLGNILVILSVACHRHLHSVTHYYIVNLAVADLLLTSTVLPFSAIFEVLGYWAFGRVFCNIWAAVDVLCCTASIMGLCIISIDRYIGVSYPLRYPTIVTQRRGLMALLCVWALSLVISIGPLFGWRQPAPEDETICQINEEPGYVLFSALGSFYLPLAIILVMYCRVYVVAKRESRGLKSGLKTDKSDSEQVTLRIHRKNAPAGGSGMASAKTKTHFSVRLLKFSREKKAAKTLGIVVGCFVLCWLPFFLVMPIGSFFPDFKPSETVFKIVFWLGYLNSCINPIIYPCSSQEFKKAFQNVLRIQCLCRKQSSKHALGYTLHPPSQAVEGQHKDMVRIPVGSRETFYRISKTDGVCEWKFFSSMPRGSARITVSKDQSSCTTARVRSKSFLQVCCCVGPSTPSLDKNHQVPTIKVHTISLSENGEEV

[2] = molecular target: T1, Alpha-1A adrenergic receptor; format: functional, cell-based; remark: listed apart in the source
[3] = molecular target: T2, Alpha-2A adrenergic receptor (Homo sapiens, UniProt P08913); format: functional, cell-based
T2 sequence (P08913 whole entry): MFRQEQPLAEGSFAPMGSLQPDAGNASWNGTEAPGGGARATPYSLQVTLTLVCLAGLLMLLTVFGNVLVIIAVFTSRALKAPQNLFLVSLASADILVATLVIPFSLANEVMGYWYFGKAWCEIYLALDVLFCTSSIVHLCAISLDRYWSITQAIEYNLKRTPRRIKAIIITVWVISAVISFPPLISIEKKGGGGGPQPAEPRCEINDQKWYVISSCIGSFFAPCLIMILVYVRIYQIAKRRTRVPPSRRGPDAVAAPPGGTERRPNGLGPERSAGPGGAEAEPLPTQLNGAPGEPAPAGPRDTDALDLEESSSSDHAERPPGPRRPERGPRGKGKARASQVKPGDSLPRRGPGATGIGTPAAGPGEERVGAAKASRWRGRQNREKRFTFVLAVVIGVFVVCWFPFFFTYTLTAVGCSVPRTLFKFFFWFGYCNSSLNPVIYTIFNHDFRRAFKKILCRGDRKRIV

[4] = molecular target: T3, 5-hydroxytryptamine receptor 1A (Homo sapiens, UniProt P08908); format: functional, cell-based
T3 sequence (P08908 whole entry): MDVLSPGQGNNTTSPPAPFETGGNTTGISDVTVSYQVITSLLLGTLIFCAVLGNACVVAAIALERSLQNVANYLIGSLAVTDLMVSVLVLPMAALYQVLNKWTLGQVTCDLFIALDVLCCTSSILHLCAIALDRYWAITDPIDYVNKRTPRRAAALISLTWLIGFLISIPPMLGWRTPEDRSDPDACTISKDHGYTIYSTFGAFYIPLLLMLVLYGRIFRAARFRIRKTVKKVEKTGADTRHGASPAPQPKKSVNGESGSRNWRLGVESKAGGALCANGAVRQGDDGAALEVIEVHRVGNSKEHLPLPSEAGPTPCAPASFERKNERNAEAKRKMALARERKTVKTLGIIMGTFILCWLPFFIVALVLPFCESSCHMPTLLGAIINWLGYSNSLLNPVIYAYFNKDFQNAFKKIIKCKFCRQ

[5] = molecular target: T4, 5-hydroxytryptamine receptor 2C (Homo sapiens, UniProt P28335)
T4 sequence (P28335 whole entry): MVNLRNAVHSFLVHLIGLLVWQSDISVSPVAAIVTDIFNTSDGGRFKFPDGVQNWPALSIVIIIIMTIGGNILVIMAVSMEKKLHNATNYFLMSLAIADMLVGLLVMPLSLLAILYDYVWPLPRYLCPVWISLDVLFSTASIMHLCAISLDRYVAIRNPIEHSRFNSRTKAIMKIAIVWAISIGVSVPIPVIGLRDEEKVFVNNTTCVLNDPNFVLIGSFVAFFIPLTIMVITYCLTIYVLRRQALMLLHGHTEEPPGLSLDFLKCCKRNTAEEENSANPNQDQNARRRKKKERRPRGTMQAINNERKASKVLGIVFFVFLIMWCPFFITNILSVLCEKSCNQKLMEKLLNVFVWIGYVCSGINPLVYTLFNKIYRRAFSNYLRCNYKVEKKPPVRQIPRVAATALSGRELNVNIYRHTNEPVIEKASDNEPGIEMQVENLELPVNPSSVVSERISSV

Endothelin-1 receptor = molecular target: T5, Endothelin-1 receptor (Homo sapiens, UniProt P25101)
T5 sequence (P25101 whole entry): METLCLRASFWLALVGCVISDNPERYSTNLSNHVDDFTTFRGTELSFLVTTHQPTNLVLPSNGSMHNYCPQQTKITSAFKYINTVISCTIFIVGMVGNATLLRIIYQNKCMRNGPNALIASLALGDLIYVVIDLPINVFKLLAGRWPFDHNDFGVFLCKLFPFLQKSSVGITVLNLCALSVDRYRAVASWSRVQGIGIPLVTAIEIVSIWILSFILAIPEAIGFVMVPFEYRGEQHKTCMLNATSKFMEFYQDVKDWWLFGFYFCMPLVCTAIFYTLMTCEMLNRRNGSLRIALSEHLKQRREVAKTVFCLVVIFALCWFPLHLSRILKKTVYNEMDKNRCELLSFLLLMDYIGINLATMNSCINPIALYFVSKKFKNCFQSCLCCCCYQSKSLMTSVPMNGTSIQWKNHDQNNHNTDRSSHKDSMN
Also: assay procedure not described here.

Row | Compound | AC50 [1] | AC50 [2] | AC50 [3] | AC50 [4] | AC50 [5] | AC50 (Endothelin-1 receptor)
1 | O=C(O)COc1ccc(C(=O)c2cccs2)c(Cl)c1Cl | > 30 µM |  |  |  |  | 
2 | C[C@]1(Cn2ccnn2)[C@H](C(=O)O)N2C(=O)C[C@H]2S1(=O)=O [TAZOBACTAM] | > 30 µM |  |  |  |  | 
3 | COc1ccccc1Oc1c(NS(=O)(=O)c2ccc(C(C)(C)C)cc2)nc(-c2ncccn2)nc1OCCO [BOSENTAN] |  | > 30 µM | > 10 µM | > 10 µM | > 30 µM | 
4 | O=C1CCc2cc(OCCCCc3nnnn3C3CCCCC3)ccc2N1 [CILOSTAZOL] |  | > 30 µM | > 30 µM |  | > 30 µM | > 30 µM
5 | Nc1ccc(S(=O)(=O)Nc2nccs2)cc1 [SULFATHIAZOLE] |  | > 30 µM | > 10 µM | > 10 µM | > 30 µM | > 30 µM
6 | C[C@H]1O[C@@H](n2cc(F)c(=O)[nH]c2=O)[C@H](O)[C@@H]1O [DOXIFLURIDINE] | > 30 µM |  |  |  |  | 
7 | COc1ccc(CC2c3cc(OC)c(OC)cc3CC[N+]2(C)CCC(=O)OCCCCCOC(=O)CC[N+]2(C)CCc3cc(OC)c(OC)cc3C2Cc2ccc(OC)c(OC)c2)cc1OC (stereo unspecified) |  | > 30 µM | > 30 µM |  | 6.3 µM | 
8 | CN1C[C@H](C(=O)N[C@]2(C)O[C@@]3(O)[C@@H]4CCCN4C(=O)[C@H](Cc4ccccc4)N3C2=O)C=C2c3cccc4[nH]cc(c34)C[C@H]21 [ERGOTAMINE] |  | 3.1 µM | > 10 µM |  | 3.8 µM | > 30 µM
9 | CC(S)C(=O)NCC(=O)O (stereo unspecified) [TIOPRONIN] |  | > 30 µM | > 30 µM | > 30 µM | > 30 µM | > 30 µM
10 | O=C1C(CC[S+]([O-])c2ccccc2)C(=O)N(c2ccccc2)N1c1ccccc1 (stereo unspecified) [SULFINPYRAZONE] |  | > 30 µM | > 30 µM | > 10 µM | > 30 µM | 
11 | CC(C)(C)NCC(O)c1cc(O)cc(O)c1 (stereo unspecified) [TERBUTALINE] |  |  |  |  |  | > 30 µM
12 | CN(CC1(C)CCCO1)S(=O)(=O)c1ccc(Cl)c(S(N)(=O)=O)c1 (stereo unspecified) [MEFRUSIDE] |  | > 30 µM | > 30 µM | > 30 µM | > 30 µM | 
13 | C[C@@H](NCCCc1cccc(C(F)(F)F)c1)c1cccc2ccccc12 |  | > 30 µM | > 30 µM |  | 0.73 µM | > 30 µM
14 | C#C[C@]1(O)CC[C@H]2[C@@H]3CCC4=CC(=O)CC[C@@H]4[C@H]3C(=C)C[C@@]21CC [ETONOGESTREL] |  | > 30 µM | > 30 µM | > 30 µM | > 10 µM | 
15 | CCN1CCN(Cc2ccc(Nc3ncc(F)c(-c4cc(F)c5nc(C)n(C(C)C)c5c4)n3)nc2)CC1 [ABEMACICLIB] |  | > 30 µM | > 30 µM | > 30 µM | > 30 µM | > 30 µM
16 | C[C@H]1c2cccc(O)c2C(=O)C2=C(O)[C@]3(O)C(=O)C(C(N)=O)=C(O)[C@@H](N(C)C)[C@@H]3[C@@H](O)[C@@H]21 [DOXYCYCLINE] |  | > 30 µM | > 10 µM | > 10 µM | > 30 µM | > 30 µM
17 | CCN(CC)CCNC(=O)c1c(C)[nH]c(/C=C2\C(=O)Nc3ccc(F)cc32)c1C [SUNITINIB] |  |  | > 30 µM |  | 2.25 µM | 8.3 µM
18 | CO[C@H]1/C=C/O[C@@]2(C)Oc3c(C)c(O)c4c(O)c(c(/C=N/N5CCN(C)CC5)c(O)c4c3C2=O)NC(=O)/C(C)=C\C=C\[C@H](C)[C@H](O)[C@@H](C)[C@@H](O)[C@@H](C)[C@H](OC(C)=O)[C@@H]1C [RIFAMPIN] |  | > 30 µM | > 30 µM | > 10 µM |  | > 30 µM

Row | Compound | AC50 [1] | AC50 [2] | AC50 [3] | AC50 [4] | AC50 [5] | AC50 (Endothelin-1 receptor)
19 | CCCC(CCC)C(=O)O [VALPROIC ACID] |  |  | > 10 µM | > 10 µM | 11 µM | > 30 µM
20 | C[C@H](CCC(=O)O)[C@H]1CC[C@H]2[C@@H]3[C@@H](O)C[C@@H]4C[C@H](O)CC[C@]4(C)[C@H]3CC[C@]12C [URSODIOL] |  | > 30 µM | > 30 µM | > 30 µM | > 30 µM | > 30 µM
21 | C[N+](C)(C)C[C@H](O)CC(=O)[O-] [LEVOCARNITINE] | > 30 µM |  |  |  |  | 
22 | COc1cc2nc(N3CCN(C(=O)C4CCCO4)CC3)nc(N)c2cc1OC (stereo unspecified) [TERAZOSIN] |  |  | > 30 µM | > 10 µM | > 30 µM | > 30 µM
23 | CN(C)CCC[C@@]1(c2ccc(F)cc2)OCc2cc(C#N)ccc21 [ESCITALOPRAM] |  |  | > 30 µM | > 30 µM |  | > 30 µM
24 | CN1C(C(=O)Nc2ccccn2)=C(O)c2ccccc2S1(=O)=O [PIROXICAM] |  |  | > 10 µM | > 10 µM | > 30 µM | 
25 | CC(C(=O)O)c1ccc2c(c1)[nH]c1ccc(Cl)cc12 (stereo unspecified) [CARPROFEN] |  |  | > 10 µM | > 10 µM | > 30 µM | > 10 µM
26 | O=C1CN(/N=C/c2ccc(-c3ccc([N+](=O)[O-])cc3)o2)C(O)=N1 [DANTROLENE] |  |  | > 10 µM | > 10 µM | > 30 µM | 
27 | CN(C)CCc1c[nH]c2ccc(Cn3cncn3)cc12 [RIZATRIPTAN] |  | > 30 µM | > 30 µM |  |  | > 30 µM
28 | C[C@]12C=CC(=O)N[C@@H]1CC[C@@H]1[C@@H]2CC[C@]2(C)[C@@H](C(=O)Nc3cc(C(F)(F)F)ccc3C(F)(F)F)CC[C@@H]12 [DUTASTERIDE] |  | > 30 µM | > 10 µM | > 10 µM | > 30 µM | 
29 | COc1ccccc1OCCNCC(O)COc1cccc2[nH]c3ccccc3c12 (stereo unspecified) [CARVEDILOL] |  | > 30 µM | > 30 µM |  | 1.1 µM | > 30 µM
30 | C[C@@H](Oc1cc(-c2cnn(C3CCNCC3)c2)cnc1N)c1c(Cl)ccc(F)c1Cl [CRIZOTINIB] |  |  | > 30 µM | > 10 µM | > 30 µM | > 30 µM
31 | OC[C@H]1O[C@@](CO)(O[C@H]2O[C@H](CO)[C@@H](O)[C@H](O)[C@H]2O)[C@@H](O)[C@@H]1O [SUCROSE] |  | > 30 µM | > 30 µM | > 30 µM | > 30 µM | > 30 µM
32 | C=C[C@H]1C[N@@]2CC[C@H]1C[C@@H]2[C@@H](O)c1ccnc2ccc(OC)cc12 [QUINIDINE] |  |  | > 10 µM |  | > 10 µM | 
33 | CN(C)[C@@H]1C(O)=C(C(N)=O)C(=O)[C@@]2(O)C(O)=C3C(=O)c4c(O)ccc(Cl)c4[C@@](C)(O)[C@H]3C[C@@H]12 [CHLORTETRACYCLINE] | > 30 µM |  |  |  |  | 
34 | CC(N)C12CC3CC(CC(C3)C1)C2 (stereo unspecified) [RIMANTADINE] |  |  | > 10 µM | > 10 µM | > 30 µM | 
35 | CC1=C(/C=C/C(C)=C/C=C/C(C)=C/C(=O)O)C(C)(C)CCC1 [TRETINOIN] | > 30 µM |  |  |  |  | 
